Measured values: BindingDB's records for doi:10.7270/Q27D2X8F (n/a, 1993)

How the values were obtained:
[1] = target: T1, 5-hydroxytryptamine receptor 1A (Homo sapiens, UniProt P08908); assay: The compound was evaluated for its ability to displace [3H]-8-OH-DPAT from 5-hydroxytryptamine 1A receptor in cellular brain membranes
T1 sequence (P08908 whole entry): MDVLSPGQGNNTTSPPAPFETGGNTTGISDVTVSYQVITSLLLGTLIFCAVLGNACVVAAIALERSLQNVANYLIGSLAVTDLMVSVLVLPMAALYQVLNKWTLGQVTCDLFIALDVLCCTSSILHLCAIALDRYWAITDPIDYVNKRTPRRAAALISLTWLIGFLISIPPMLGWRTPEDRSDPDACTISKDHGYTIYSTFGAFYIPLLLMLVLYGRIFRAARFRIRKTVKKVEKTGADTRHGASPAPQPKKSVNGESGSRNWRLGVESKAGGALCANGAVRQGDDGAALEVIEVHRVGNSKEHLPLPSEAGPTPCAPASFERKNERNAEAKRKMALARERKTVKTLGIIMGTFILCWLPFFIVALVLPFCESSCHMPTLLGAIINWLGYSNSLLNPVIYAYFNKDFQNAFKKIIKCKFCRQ

[2] = target: 5-hydroxytryptamine receptor 1B (Homo sapiens, UniProt P28222); assay: The compound was evaluated for its ability to displace [3H]5-HT from 5-hydroxytryptamine 1B receptor in cellular brain membranes
Chain of 5-hydroxytryptamine receptor 1B (P28222 whole entry): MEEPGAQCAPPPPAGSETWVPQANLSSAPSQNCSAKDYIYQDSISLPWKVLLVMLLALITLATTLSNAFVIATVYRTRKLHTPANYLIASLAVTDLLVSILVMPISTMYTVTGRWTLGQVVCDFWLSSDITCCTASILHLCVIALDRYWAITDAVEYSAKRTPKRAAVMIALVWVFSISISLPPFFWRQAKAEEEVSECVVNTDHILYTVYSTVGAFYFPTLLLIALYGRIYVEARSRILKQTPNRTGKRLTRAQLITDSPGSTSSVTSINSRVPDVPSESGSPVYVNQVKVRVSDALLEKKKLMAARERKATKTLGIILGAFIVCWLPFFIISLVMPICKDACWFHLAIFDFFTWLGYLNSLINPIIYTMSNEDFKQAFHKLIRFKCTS

[3] = target: Serotonin 2 (5-HT2) receptor (Homo sapiens, UniProt P28223+P28335+P41595); assay: The compound was evaluated for its ability to displace [3H]ketanserin from 5-hydroxytryptamine 2 receptor in cellular brain membranes
Chain of Serotonin 2 (5-HT2) receptor (P28223 whole entry): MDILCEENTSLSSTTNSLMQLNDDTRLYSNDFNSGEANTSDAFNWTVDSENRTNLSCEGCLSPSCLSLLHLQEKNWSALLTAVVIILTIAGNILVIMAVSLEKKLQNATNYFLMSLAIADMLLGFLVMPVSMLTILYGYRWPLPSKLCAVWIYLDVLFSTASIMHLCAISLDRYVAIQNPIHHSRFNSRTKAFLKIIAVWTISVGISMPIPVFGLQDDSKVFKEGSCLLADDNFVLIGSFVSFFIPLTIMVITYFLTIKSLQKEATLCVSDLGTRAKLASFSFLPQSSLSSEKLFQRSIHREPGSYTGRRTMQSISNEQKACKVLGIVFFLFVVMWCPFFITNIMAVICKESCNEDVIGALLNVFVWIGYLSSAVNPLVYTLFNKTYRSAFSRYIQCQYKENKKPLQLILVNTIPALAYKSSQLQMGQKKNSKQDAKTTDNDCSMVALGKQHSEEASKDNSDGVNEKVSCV
Chain of Serotonin 2 (5-HT2) receptor (P41595 whole entry): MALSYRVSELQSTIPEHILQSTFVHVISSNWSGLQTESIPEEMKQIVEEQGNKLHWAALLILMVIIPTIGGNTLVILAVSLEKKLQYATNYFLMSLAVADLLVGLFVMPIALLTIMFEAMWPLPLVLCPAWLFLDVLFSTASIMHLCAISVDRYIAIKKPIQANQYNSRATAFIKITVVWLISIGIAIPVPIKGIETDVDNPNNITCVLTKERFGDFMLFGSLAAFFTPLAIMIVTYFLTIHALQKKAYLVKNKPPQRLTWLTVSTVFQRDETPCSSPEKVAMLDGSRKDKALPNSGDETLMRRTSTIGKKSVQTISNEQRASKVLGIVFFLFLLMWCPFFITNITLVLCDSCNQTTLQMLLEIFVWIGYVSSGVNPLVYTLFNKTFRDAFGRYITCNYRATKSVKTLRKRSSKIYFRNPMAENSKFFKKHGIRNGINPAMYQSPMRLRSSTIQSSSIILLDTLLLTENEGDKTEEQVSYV
Chain of Serotonin 2 (5-HT2) receptor (P28335 whole entry): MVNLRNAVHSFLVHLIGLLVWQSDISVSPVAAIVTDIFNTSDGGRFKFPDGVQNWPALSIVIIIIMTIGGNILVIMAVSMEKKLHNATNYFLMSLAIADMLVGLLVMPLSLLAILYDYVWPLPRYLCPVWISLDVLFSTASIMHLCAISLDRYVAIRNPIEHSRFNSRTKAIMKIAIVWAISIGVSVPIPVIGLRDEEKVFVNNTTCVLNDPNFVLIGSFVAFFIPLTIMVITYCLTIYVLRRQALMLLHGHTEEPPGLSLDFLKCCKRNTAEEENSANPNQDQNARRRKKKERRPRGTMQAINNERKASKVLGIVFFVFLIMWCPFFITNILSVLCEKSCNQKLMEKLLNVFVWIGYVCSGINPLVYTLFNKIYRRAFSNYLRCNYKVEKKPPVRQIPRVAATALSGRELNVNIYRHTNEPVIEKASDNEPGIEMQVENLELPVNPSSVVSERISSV

Row | SMILES | IC50 [1] [nM] | IC50 [2] [nM] | IC50 [3] [nM]
1 | CCCN(CCCCNc1ccc([N+](=O)[O-])c2nonc12)C1COc2cccc(OC)c2C1 (stereo not given) | 100 | 340 | 18000
2 | CCCN(CCCCN1C(=O)c2ccccc2S1(=O)=O)C1COc2cccc(OC)c2C1 (stereo not given) [2-{4-[(5-Methoxy-chroman-3-yl)-propyl-amino]-butyl}-1,1-dioxo-1,2-dihydro-1lambda*6*-benzo[d]isothiazol-3-one; compound with oxalic acid] | 1 | 1000 | 10000

Continued, values first:

Row | IC50 [1] [nM] | IC50 [2] [nM] | IC50 [3] [nM] | SMILES
3 | 0.3 | 9 | 15 | CCCN(CCCCNC(=O)c1cc(=O)oc2c3c4c(cc12)CCCN4CCC3)C1COc2cccc(OC)c2C1 (stereo not given)
4 | 50 | 400 | 30000 | CCCN(CCCCN1C(=O)c2ccccc2C1=O)C1COc2cccc(OC)c2C1 (stereo not given) [2-{4-[(5-Methoxy-chroman-3-yl)-propyl-amino]-butyl}-isoindole-1,3-dione; compound with oxalic acid]
5 | 0.2 | 5000 | 10 | CCCN(CCCCN1C(=O)CC2(CCCC2)CC1=O)C1COc2cccc(OC)c2C1 (stereo not given) [NSC_121851]
